Data on 3 molecules can be found in US12403130B2, “Pharmaceutical combinations for treating cancer” (Purdue Pharmaceutical Products L.P., priority 2014, dated 2025).

As usually defined, the IC50 is the concentration that inhibits the measured activity by half. A high value points to weaker potency.

The subject of assay [1] is U87MG mouse xenograft model. The assay is described as follows: U87MG subcutaneously inoculated xenograft, time to progression. The assay is classed as in vivo. How it is done:
(§1) Subcutaneously Inoculated Xenografts
(§2) • Vehicle (control) • Radiotherapy (2Gy/5 consecutive days) • Temozolamide (16 mg/Kg for 5 consecutive days, po) • Temozolamide+radiotherapy • EDO-S101 (60 mg/Kg at day 1, 8 and 15 every 28 days, iv) • EDO-S101+radiotherapy

In assay [2] the test system is U87G glioblastoma cell line. The assay is described as follows: IC50 against glioblastoma cell line U87G. Type of assay: cell-based.
For assay [3], the system named is U251MG mouse xenograft model. The assay can be described thus: U251MG subcutaneously inoculated xenograft, time to progression. Type of assay: in vivo. The method, then:
as §1, §2

In assay [4] the test system is T98G glioblastoma cell line. The assay can be described thus: IC50 against glioblastoma cell line T98G. The assay is classed as cell-based.
In assay [5] the test system is U251MG glioblastoma cell line. The assay can be described thus: IC50 against glioblastoma cell line U251MG. The assay is classed as cell-based.
Assay [6] concerns T98G, U251MG and U87MG glioblastoma cell lines. The assay is described as follows: Radiotherapy and EDO-S101 against glioblastoma cell lines in vitro, surviving fraction. As to conditions: radiotherapy in combination with EDO-S101 (5 μM or 10 μM) compared to radiotherapy alone. Type of assay: cell-based. How it is done: FIG. 15 is a plot of % surviving fraction of in vitro T98G, U251MG and U87MG glioblastoma cell lines against dose of radiotherapy (Gy) in combination with two different concentrations of the compound of formula I (EDO-S101) against a control with radiotherapy alone.

In assay [7] the test system is multiple myeloma cell lines. Particulars: WO-A-2010/085377; in vitro; cited from earlier work.
Another assay relates to Vk*MYC multiple myeloma. The assay can be described thus: Vk*MYC mouse model of multiple myeloma. The assay is classed as in vivo. Particulars: mice receiving only two doses, one week apart. The source says: A genetic rearrangement of the MYC locus, resulting in dysregulated expression of MYC, is the most common mutation in human multiple myeloma. The genetically engineered Vk*MYC mouse model is based on dysregulation of MYC, and has been extensively validated as a clinically and biologically faithful model of untreated multiple myeloma. Nine drugs or classes of drugs (DNA alkylators, glucocorticoids, proteasome inhibitors, IMiDs, nab-paclitaxel, histone deacetylase inhibitors, TACI-Ig, perifosine and SNS-032, a CDK2, 7, 9 inhibitor) have been previously reported with more than a 20% partial response rate in Vk*MYC MM. Among those, the first five also have greater than 20% PR in patients with multiple myeloma for a positive predictive value of 56%.

Assay [8] deals with Vk12653 transplant model of relapsed/refractory multiple myeloma. The assay can be described thus: Vk12653 transplant model of relapsed/refractory multiple myeloma. Type of assay: in vivo. Particulars: very aggressive, multi-drug resistant model.
The mark [9] stands for this setting: unit not given for temozolamide.
The mark [10] stands for this setting: combination with radiotherapy (2Gy/5 consecutive days), temozolamide 16 mg/Kg 5 consecutive days po, EDO-S101 60 mg/Kg day 1, 8, 15 iv.
The mark [11] stands for this setting: drug alone, EDO-S101 60 mg/Kg at day 1, 8 and 15 every 28 days, iv.

Structures are written as SMILES. Read-outs that look alike come from different tables or passages of the source.

Turning to `Cn1nnc2c(C(N)=O)ncn2c1=O` [temozolamide], the “time to progression of the tumours” value in [1] (mouse, in vivo) is given as 35 days; in [3] (mouse, in vivo), 42 days. The values for the IC50 in assay [2] (setting [9]), in assay [4] (setting [9]) and in assay [5] (setting [9]) were 20 µM, more than 100 µM and 20 µM, respectively.

On to `Cn1c(CCCCCCC(=O)NO)nc2cc(N(CCCl)CCCl)ccc21` [EDO-S101], for which the “% survival rate for the glioblastoma cells (FIG. 15)” value in assay [6] is listed as “considerably reduced”. Besides, the “activity relative to the activity shown by bendamustin” value in assay [7] is given as 35-100 ×. Further, the duration of response result with Vk*MYC multiple myeloma is given as “more than three months”. Besides, the rate of response result with Vk*MYC multiple myeloma is reported as “high rate of response”. Further, the “time to progression of the tumours” value in [1] (setting [10]) is “over 50 days”; in assay [1] (setting [11]) it was 40 days; in assay [3] (setting [10]) it was “over 50 days”; in assay [3] (setting [11]), “over 50 days”. For the same molecule, the IC50 in [2] stood at 1.36 µM; in assay [4] (Homo sapiens), 7.7 µM; in assay [5] (Homo sapiens, U-251) it was 6.6 µM. In assay [8], the single agent activity result is reported as “single agent activity”.

For `Cn1c(CCCC(=O)O)nc2cc(N(CCCl)CCCl)ccc21` [bendamustin], the IC50 stood at 50 µM in assay [2], 52 µM in assay [4] and 30 µM in assay [5].
